Measured values published in patent publication US4623662A, “Antiatherosclerotic ureas and thioureas” (American Cyanamid Company, priority 1985, dated 1986).
Where two headings read alike, the source gives them in different places.

Biological target: T1, fatty acyl CoA: cholesterol acyl transferase (ACAT) (Rattus norvegicus, UniProt O70536)
T1 construct: The supernatant, containing the microsomal fraction, served as the source of the cholesterol-esterifying enzyme; from tissue; host or cells: rat adrenals, supernatant of 1,000 x g centrifugation containing the microsomal fraction
T1 sequence (O70536 1-545): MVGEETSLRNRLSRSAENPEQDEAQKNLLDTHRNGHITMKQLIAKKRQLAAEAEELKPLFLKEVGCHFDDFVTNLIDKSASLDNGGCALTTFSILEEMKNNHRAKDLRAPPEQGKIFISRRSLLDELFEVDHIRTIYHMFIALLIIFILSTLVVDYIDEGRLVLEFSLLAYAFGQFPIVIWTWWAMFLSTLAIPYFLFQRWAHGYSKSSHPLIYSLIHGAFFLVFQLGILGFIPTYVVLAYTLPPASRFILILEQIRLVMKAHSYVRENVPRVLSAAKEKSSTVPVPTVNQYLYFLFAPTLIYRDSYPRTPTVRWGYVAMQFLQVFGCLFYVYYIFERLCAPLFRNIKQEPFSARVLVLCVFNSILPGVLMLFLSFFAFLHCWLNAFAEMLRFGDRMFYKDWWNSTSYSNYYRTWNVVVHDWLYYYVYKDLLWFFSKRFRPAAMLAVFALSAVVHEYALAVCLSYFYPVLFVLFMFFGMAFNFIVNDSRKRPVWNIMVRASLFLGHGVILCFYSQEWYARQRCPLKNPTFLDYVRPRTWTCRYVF
Assay: Inhibition of fatty acyl CoA:cholesterol acyl transferase (ACAT), rat adrenal enzyme
Format: biochemical
Method: The compounds of the present invention were assayed for two types of biological activity related to their potential use as antiatherosclerotic agents. Compounds were tested in vitro for the ability to inhibit the enzyme fatty acyl CoA: cholesterol acyl transferase (ACAT) and in vivo for serum hypolipidemic activity as meausred by the ability to inhibit lipid absorption in rats.
The compounds were tested for their ability to inhibit ACAT according to the following procedure: rat adrenals were homogenized in 0.2M monobasic potassium phosphate buffer, pH 7.4, and centrifuged at 1,000 times gravity for 15 minutes at 5° C. The supernatant, containing the microsomal fraction, served as the source of the cholesterol-esterifying enzyme, fatty acyl CoA:cholesterol acyl transferase (ACAT). A mixture comprising 50 parts of adrenal supernatant, 10 parts of bovine serum albumin (50 mg/ml), 3 parts of test compound (final concentration 5.2 μg/ml), and 500 parts of buffer was preincubated at 37° C. for 10 minutes. After treatment with 20 parts of oleoyl CoA (^14 C-0.4 μCi), the mixture was incubated at 37° C. for 10 minutes. A control mixture, omitting the test compound, was prepared and treated in the same manner. The lipids from the incubation mixture was extracted into an organic solvent and separated by thin-layer chromatography. The cholesteryl ester fraction was counted in a scintillation counter. This procedure is a modification of that described by Hashimoto, et al., Life Scie., 12 (Part II), 1-12 (1973).
Compounds which produced statistically significant inhibition of the ACAT enzyme are considered to be active.
In addition to the above described test and the results given in terms of percent inhibition, various compounds of this invention were tested by the same procedure at several concentrations. The results of this test are given in Table II in terms of IC50 (μM), that concentration which produced 50% inhibition of the ACAT enzyme.

[1] = rat adrenal ACAT, final concentration 5.2 μg/ml, read-out: % Inhibition

SMILES	inhibition at 5.2 µg/mL [1] [%]	further results
CCCCCOc1ccc(CN(Cc2ccc(CCCCC)cc2)C(=O)Nc2ccc(Cl)cc2C(F)(F)F)cc1 [1-(4-n-Pentylbenzyl)-1-(4-n-pentyloxybenzyl)-3-(2-trifluoromethyl-4-chlorophenyl)urea]	81	
CCCCCOc1ccc(CN(Cc2ccc(CCCCC)cc2)C(=O)Nc2cccc(C(F)(F)F)c2)cc1 [1-(4-n-Pentylbenzyl)-1-(4-n-pentyloxybenzyl)-3-(3-trifluoromethylphenyl)urea]	85	
Cc1cc(Cl)cc(C)c1NC(=O)N(CCCCCC(C)O)Cc1ccc(CC(C)(C)C)cc1 (centres unmarked) [1-(6-Hydroxyheptyl)-1-[4-(2,2-dimethylpropyl)benzyl]-3-(4-chloro-2,6-dimethylphenyl)urea]		IC50 (rat adrenal ACAT, several concentrations): 1.13 µM
CCCCN(Cc1c(Cl)cccc1Cl)C(=O)Nc1ccc(C)cc1C [1-( -n-Butyl)-1-(2,6-dichlorobenzyl)-3-(2,4-dimethylphenyl)urea]	74.5	
CCCCN(Cc1ccccc1Cl)C(=O)Nc1ccc(C)cc1C [1-( -n-Butyl)-1-(2-chlorobenzyl)-3-(2,4-dimethylphenyl)urea]	95.5	
CCCCN(Cc1ccccc1F)C(=O)Nc1ccc(C)cc1C [1-( -n-Butyl)-1-(2-fluorobenzyl)-3-(2,4-dimethylphenyl)urea]	83.6	
CCCCc1ccc(CN(CCCC)C(=O)Nc2ccc(C)cc2C)cc1 [1-( -n-Butyl)-1-(4- -n-butylbenzyl)-3-(2,4-dimethylphenyl)urea]	94.4	
CCCCN(Cc1ccc(F)cc1)C(=O)Nc1ccc(C)cc1C [1-( -n-Butyl)-1-(4-fluorobenzyl)-3-(2,4-dimethylphenyl)urea]	80.6	
CCCCOc1ccc(CN(Cc2ccccc2)C(=O)Nc2cccc(C(F)(F)F)c2)cc1 [1-(n-Benzyl)-1-(4-n-butoxybenzyl)-3-(3-trifluoromethylphenyl)urea]	87	
CCCCN(CC(C)(c1ccccc1)c1ccccc1)C(=O)Nc1ccc(C)cc1C [1-(n-Butyl)-1-(2-methyl-2,2-diphenyl)ethyl-3-(2,4-dimethylphenyl)urea]	97.4	
CCCCN(CCc1ccccc1)C(=O)Nc1ccc(C)cc1C [1-(n-Butyl)-1-(2-phenylethyl)-3-(2,4-dimethylphenyl)urea]	87.9	
CCCCN(Cc1ccc2c(c1)OCO2)C(=O)Nc1ccc(C)cc1C [1-(n-Butyl)-1-(3,4-methylenedioxybenzyl)-3-(2,4-dimethylphenyl)urea]	88.2	
CCCCN(CCCc1ccccc1)C(=O)Nc1ccc(C)cc1C [1-(n-Butyl)-1-(3-phenylpropyl)-3-(2,4-dimethylphenyl)urea]	97.4	
CCCCN(Cc1ccc(Cl)cc1)C(=O)Nc1ccc(C)cc1C [1-(n-Butyl)-1-(4-chlorobenzyl)-3-(2,4-dimethylphenyl)urea]	94.6	
CCCCCCOc1ccc(CN(CCCC)C(=O)Nc2c(C)cc(C)cc2C)cc1 [1-(n-Butyl)-1-(4-hexyloxybenzyl)-3-(2,4,6-trimethylphenyl)urea]	97.1	
CCCCN(Cc1ccc(OC)cc1)C(=O)Nc1ccc(C)cc1C [1-(n-Butyl)-1-(4-methoxybenzyl)-3-(2,4-dimethylphenyl)urea]	94.2	
CCCCN(Cc1ccc(C)cc1)C(=O)Nc1ccc(C)cc1C [1-(n-Butyl)-1-(4-methylbenzyl)-3-(2,4-dimethylphenyl)urea]	96.7	
CCCCN(Cc1ccc(-c2ccccc2)cc1)C(=O)Nc1ccc(C)cc1C [1-(n-Butyl)-1-(4-phenylbenzyl)-3-(2,4-dimethylphenyl)urea]	97.1	
CCCCN(Cc1ccc(C(C)(C)C)cc1)C(=O)Nc1ccc(C)cc1C [1-(n-Butyl)-1-(4-tert-butylbenzyl)-3-(2,4-dimethylphenyl)urea]	96.4	
CCCCN(Cc1ccc(C(F)(F)F)cc1)C(=O)Nc1ccc(C)cc1C [1-(n-Butyl)-1-(4-trifluoromethylbenzyl)-3-(2,4-dimethylphenyl)urea]	93.3	
CCCCN(Cc1ccccc1)C(=O)Nc1cc(Cl)c(NC(=O)CCl)c(Cl)c1 [1-(n-Butyl)-1-(benzyl)-3-[4-(chloroacetamido)-3,5-dichlorophenyl]urea]	72.9	

SMILES	inhibition at 5.2 µg/mL [1] [%]	further results
CCCCN(CCc1cccc(Br)c1)C(=O)Nc1ccc(C)cc1C [1-(n-Butyl)-1-[2-(3-bromophenyl)ethyl]-3-(2,4-dimethylphenyl)urea]	97	
CCCCN(CCc1cccc(OC)c1)C(=O)Nc1ccc(C)cc1C [1-(n-Butyl)-1-[2-(3-methoxyphenyl)ethyl]-3-(2,4-dimethylphenyl)urea]	98.3	
CCCCN(CCc1ccc(Cl)cc1)C(=O)Nc1ccc(C)cc1C [1-(n-Butyl)-1-[2-(4-chlorophenyl)ethyl]-3-(2,4-dimethylphenyl)urea]	93.3	
CCCCN(CCc1ccc(F)cc1)C(=O)Nc1ccc(C)cc1C [1-(n-Butyl)-1-[2-(4-fluorophenyl)ethyl]-3-(2,4-dimethylphenyl)urea]	96.1	
CCCCN(CCCc1ccc(OC)c(OC)c1)C(=O)Nc1ccc(C)cc1C [1-(n-Butyl)-1-[3-(3,4-dimethoxyphenyl)propyl]-3-(2,4-dimethylphenyl)urea]	36.4	
CCCCCCc1ccc(CN(CCCC)C(=O)Nc2ccc(C)cc2C)cc1 [1-(n-Butyl)-1-[4-(n-hexyl)benzyl]-3-(2,4-dimethylphenyl)urea]	93.8	
CCCCN(Cc1ccccc1)C(=O)Nc1cc(Cl)ccc1O [1-(n-Butyl)-1-benzyl-3-(2-hydroxy-5-chlorophenyl)urea]	85.6	
CCCCN(Cc1ccccc1)C(=O)Nc1ccccc1[N+](=O)[O-] [1-(n-Butyl)-1-benzyl-3-(2-nitrophenyl)urea]	37	
CCCCN(Cc1ccccc1)C(=O)Nc1cccc(Cl)c1O [1-(n-Butyl)-1-benzyl-3-(3-chloro-2-hydroxyphenyl)urea]	71	
CCCCN(Cc1ccccc1)C(=O)Nc1cc(Cl)c(N)c(Cl)c1 [1-(n-Butyl)-1-benzyl-3-(4-amino-3,5-dichlorophenyl)urea]	61.1	
CCCCN(Cc1ccccc1)C(=O)Nc1cc(Cl)c(NC(=O)C(F)(F)F)c(Cl)c1 [1-(n-Butyl)-1-benzyl-3-(4-trifluoroacetylamino-3,5-dichlorophenyl)urea]	87.8	
CCCCCCCCCCN(Cc1ccccc1)C(=O)Nc1ccc(C)cc1C [1-(n-Decyl)-1-benzyl-3-(2,4-dimethylphenyl)urea]	96.1	
CCCCCCCN(C(=O)Nc1cc(C)c(C)cc1C)c1ccco1 [1-(n-Heptyl)-1-(2-furyl)-3-(2,4,5-trimethylphenyl)urea]	93.8	
CCCCCCCN(C(=O)Nc1c(Cl)cc(Cl)cc1Cl)c1ccco1 [1-(n-Heptyl)-1-(2-furyl)-3-(2,4,6-trichlorophenyl)urea]	96.1	
CCCCCCCN(CCc1ccccc1)C(=O)Nc1cc(Cl)c(Cl)cc1Cl [1-(n-Heptyl)-1-(2-phenylethyl)-3-(2,4,5-trichlorophenyl)urea]	77.3	
CCCCCCCN(CCc1ccccc1)C(=O)Nc1cccc(C(F)(F)F)c1 [1-(n-Heptyl)-1-(2-phenylethyl)-3-(3-trifluoromethylphenyl)urea]	88.4	
CCCCCCCN(Cc1ccc(CCCC)cc1)C(=O)Nc1cc(Cl)c(Cl)cc1Cl [1-(n-Heptyl)-1-(4-n-butylbenzyl)-3-(2,4,5-trichlorophenyl)urea]	46.5	
CCCCCCCN(Cc1ccc(CCCC)cc1)C(=O)Nc1cccc(C(F)(F)F)c1 [1-(n-Heptyl)-1-(4-n-butylbenzyl)-3-(3-trifluoromethylphenyl)urea]	85	
CCCCCCCN(Cc1ccc(CCCC)cc1)C(=O)Nc1ccc(C(=O)O)cc1 [1-(n-Heptyl)-1-(4-n-butylbenzyl)-3-(4-carboxyphenyl)urea]	61.8	
CCCCCCCN(Cc1ccc(CCCC)cc1)C(=O)Nc1cccc(C(F)(F)F)c1 [1-(n-Heptyl)-1-[4-(n-butyl)benzyl]-3-(3-trifluoromethylphenyl)urea]		inhibition at 5.2 µg/mL: 90%
